Measurements published in publication PMC9154192 (PLoS Biology, 2022).
Where two headings read alike, the source gives them in different places. Marks after values point to notes of the source that are not given here.

Format: in vivo, SD rats
Method: Toxicity studies were conducted at Biotoxtech (Korea) under review and approval from IACUC (170842, 180144, 170889) of Biotoxtech. All animals used in the toxicity test were purchased from OrientBio (Korea).
A subchronic toxicity study was performed for PP2S. Female and male rats were divided into a control group (0 mg/kg/day, n = 15), a low-dose group (167 mg/kg/day, n = 10), a medium-dose group (500 mg/kg/day, n = 10), and a high-dose group (1,500 mg/kg/day, n = 15), respectively. Thus, there were a total of 8 groups. The drug was administered by oral gavage at 10 mL/kg body weight daily for 4 weeks. Five animals each in the control and high-dose groups continued their treatments for 2 more weeks. Clinical symptoms were observed, and body weight was measured during the test period for a total of 6 weeks; 0.5% methyl cellulose 1,500 cP (Sigma, USA) in water for injection (JW Pharmaceutical, Korea) was used as a vehicle. Control animals were treated with only the same volume of the vehicle.
Organ weights were measured while conducting a 4-week repeated oral toxicity study for PP2S. For all animals, wet weight of the following organs were measured, and the relative organ weight ratio to the fasted body weight was calculated. Organs with left and right sides were weighed together. […] In addition, changes observed with statistical significance in females of the recovery group were minor changes, which were not observed in the main test group. They were not accompanied by other related changes. Thus, they were judged to have no toxicological significance.

[1] = female, 167 mg/kg, dosing period
[2] = female, 500 mg/kg, dosing period
[3] = female, 1,500 mg/kg, dosing period
[4] = female, 1,500 mg/kg, recovery period

Which “effect on organ weights” value (all administration groups, male and female, main test and recovery group) does the source give for `CCCCOc1ccc2cc(CN3C(=O)CC[C@H]3C(=O)OC)c3cc(OC)c(OC)cc3c2c1` [PP2S, Methyl (S)-1-((3-butoxy-6,7-dimethoxyphenanthren-9-yl)methyl)-5-oxopyrrolidine-2-carboxylate] here?
Its value is “effect of the test substance was not recognized”.

What about the “B.W. (mean)” value [1] of the same compound?
Its value is 218.0 g.

What about the “Mean absolute organ weight, Adrenal” value [1] of the same compound?
The value was 0.0775 g.

What about the “Mean absolute organ weight, Heart” value [1] of the same compound?
Its value is 0.87 g.

What about the “Mean absolute organ weight, Kidney” value [1] of the same compound?
The value was 1.77 g.

What about the “Mean absolute organ weight, Liver” value [1] of the same compound?
The value was 6.63 g.

And the “Mean absolute organ weight, Lung” value [1]?
Its value is 1.09 g.

And the “Mean absolute organ weight, Ovary” value [1]?
Its value is 0.0898 g.

What about the “Mean absolute organ weight, Pituitary” value [1] of the same compound?
The value was 0.0140 g.

What about the “Mean absolute organ weight, Spleen” value [1] of the same compound?
The value was 0.50 g.

What about the “Mean absolute organ weight, Uterus” value [1] of the same compound?
The value was 0.52 g.

What about the “Mean relative organ weight, Adrenal” value [1] of the same compound?
Its value is 0.0357 g/100g body weight.

What about the “Mean relative organ weight, Brain” value [1] of the same compound?
The value was 0.83 g/100g body weight.

And the “Mean relative organ weight, Heart” value [1]?
The value was 0.40 g/100g body weight.

What about the “Mean relative organ weight, Kidney” value [1] of the same compound?
Its value is 0.81 g/100g body weight.

And the “Mean relative organ weight, Liver” value [1]?
The value was 3.05 g/100g body weight.

And the “Mean relative organ weight, Lung” value [1]?
Its value is 0.50 g/100g body weight.

And the “Mean relative organ weight, Ovary” value [1]?
Its value is 0.0410 g/100g body weight.

And the “Mean relative organ weight, Pituitary” value [1]?
Its value is 0.0065 g/100g body weight.

What about the “Mean relative organ weight, Spleen” value [1] of the same compound?
The value was 0.23 g/100g body weight.

And the “Mean relative organ weight, Uterus” value [1]?
The value was 0.24 g/100g body weight.

And the “B.W. (mean)” value [2]?
Its value is 224.1 g.

And the “Mean absolute organ weight, Adrenal” value [2]?
Its value is 0.0755 g.

What about the “Mean absolute organ weight, Heart” value [2] of the same compound?
The value was 0.89 g.

What about the “Mean absolute organ weight, Kidney” value [2] of the same compound?
Its value is 1.70 g.

What about the “Mean absolute organ weight, Liver” value [2] of the same compound?
The value was 6.67 g.

What about the “Mean absolute organ weight, Lung” value [2] of the same compound?
Its value is 1.10 g.

What about the “Mean absolute organ weight, Ovary” value [2] of the same compound?
The value was 0.0846 g.

And the “Mean absolute organ weight, Pituitary” value [2]?
Its value is 0.0139 g.

What about the “Mean absolute organ weight, Spleen” value [2] of the same compound?
Its value is 0.47 g.

And the “Mean absolute organ weight, Uterus” value [2]?
Its value is 0.53 g.

And the “Mean relative organ weight, Adrenal” value [2]?
The value was 0.0337 g/100g body weight.

What about the “Mean relative organ weight, Brain” value [2] of the same compound?
Its value is 0.78 g/100g body weight.

What about the “Mean relative organ weight, Heart” value [2] of the same compound?
The value was 0.40 g/100g body weight.

What about the “Mean relative organ weight, Kidney” value [2] of the same compound?
The value was 0.76 g/100g body weight.

And the “Mean relative organ weight, Liver” value [2]?
The value was 2.97 g/100g body weight.

What about the “Mean relative organ weight, Lung” value [2] of the same compound?
The value was 0.49 g/100g body weight.

And the “Mean relative organ weight, Ovary” value [2]?
Its value is 0.0381 g/100g body weight.

And the “Mean relative organ weight, Pituitary” value [2]?
Its value is 0.0062 g/100g body weight.

What about the “Mean relative organ weight, Spleen” value [2] of the same compound?
Its value is 0.21 g/100g body weight.

What about the “Mean relative organ weight, Uterus” value [2] of the same compound?
Its value is 0.24 g/100g body weight.

What about the “B.W. (mean)” value [3] of the same compound?
Its value is 217.3 g.

And the “Mean absolute organ weight, Adrenal” value [3]?
The value was 0.0730 g.

And the “Mean absolute organ weight, Brain” value [3]?
Its value is 1.86 g.

And the “Mean absolute organ weight, Heart” value [3]?
The value was 0.84 g.

What about the “Mean absolute organ weight, Kidney” value [3] of the same compound?
The value was 1.72 g.

And the “Mean absolute organ weight, Liver” value [3]?
The value was 6.49 g.

What about the “Mean absolute organ weight, Lung” value [3] of the same compound?
The value was 1.11 g.

What about the “Mean absolute organ weight, Ovary” value [3] of the same compound?
Its value is 0.0874 g.

And the “Mean absolute organ weight, Pituitary” value [3]?
The value was 0.0139 g.

And the “Mean absolute organ weight, Spleen” value [3]?
The value was 0.48 g.

What about the “Mean absolute organ weight, Uterus” value [3] of the same compound?
Its value is 0.47 g.

And the “Mean relative organ weight, Adrenal” value [3]?
The value was 0.0335 g/100g body weight.

And the “Mean relative organ weight, Brain” value [3]?
Its value is 0.84 g/100g body weight.

And the “Mean relative organ weight, Heart” value [3]?
Its value is 0.38 g/100g body weight.

What about the “Mean relative organ weight, Kidney” value [3] of the same compound?
The value was 0.79 g/100g body weight.

And the “Mean relative organ weight, Liver” value [3]?
The value was 2.98 g/100g body weight.

And the “Mean relative organ weight, Lung” value [3]?
Its value is 0.51 g/100g body weight.

And the “Mean relative organ weight, Ovary” value [3]?
Its value is 0.0402 g/100g body weight.

What about the “Mean relative organ weight, Pituitary” value [3] of the same compound?
The value was 0.0064 g/100g body weight.

And the “Mean relative organ weight, Spleen” value [3]?
Its value is 0.22 g/100g body weight.

And the “Mean relative organ weight, Uterus” value [3]?
The value was 0.22 g/100g body weight.

What about the “B.W. (mean)” value [4] of the same compound?
The value was 248.7 g.

What about the “Mean absolute organ weight, Adrenal” value [4] of the same compound?
The value was 0.0723 g.

And the “Mean absolute organ weight, Brain” value [4]?
The value was 1.86 g.

And the “Mean absolute organ weight, Heart” value [4]?
The value was 0.91 g.

And the “Mean absolute organ weight, Kidney” value [4]?
The value was 1.73 g.

What about the “Mean absolute organ weight, Liver” value [4] of the same compound?
Its value is 7.01 * g.

And the “Mean absolute organ weight, Lung” value [4]?
The value was 1.17 * g.

And the “Mean absolute organ weight, Ovary” value [4]?
The value was 0.1012 g.

What about the “Mean absolute organ weight, Pituitary” value [4] of the same compound?
Its value is 0.0154 g.

What about the “Mean absolute organ weight, Spleen” value [4] of the same compound?
Its value is 0.54 g.

And the “Mean absolute organ weight, Uterus” value [4]?
Its value is 0.54 g.

What about the “Mean relative organ weight, Adrenal” value [4] of the same compound?
Its value is 0.0291 g/100g body weight.

And the “Mean relative organ weight, Brain” value [4]?
The value was 0.75 g/100g body weight.

And the “Mean relative organ weight, Heart” value [4]?
Its value is 0.37 g/100g body weight.

And the “Mean relative organ weight, Kidney” value [4]?
The value was 0.69 g/100g body weight.

And the “Mean relative organ weight, Liver” value [4]?
The value was 2.81 g/100g body weight.

What about the “Mean relative organ weight, Lung” value [4] of the same compound?
The value was 0.48 g/100g body weight.

What about the “Mean relative organ weight, Ovary” value [4] of the same compound?
Its value is 0.0407 g/100g body weight.

And the “Mean relative organ weight, Pituitary” value [4]?
The value was 0.0062 g/100g body weight.

And the “Mean relative organ weight, Spleen” value [4]?
Its value is 0.22 g/100g body weight.

What about the “Mean relative organ weight, Uterus” value [4] of the same compound?
The value was 0.22 g/100g body weight.

What about the “B.W. (mean)” value (male, 167 mg/kg, dosing period) of the same compound?
Its value is 363.4 g.
